Experimental data: patent US11591335B2, “Bicyclic pesticidal compounds” (BASF SE, priority 2017, dated 2023)

Key:
Type in all cases: in vivo
[1] = tested on: Spodoptera Eridania; test: Southern armyworm (Spodoptera Eridania), sprayed lima bean plants; conditions: 96 h, larvae, 4 days after treatment, read-out: mortality in comparison with untreated controls
Procedure: The active compounds were formulated by a Tecan liquid handler in 100% cyclohexanone as a 10,000 ppm solution supplied in tubes. The 10,000 ppm solution was serially diluted in 100% cyclohexanone to make interim solutions. These served as stock solutions for which final dilutions were made by the Tecan in 50% acetone:50% water (v/v) into 10 or 20 ml glass vials. A nonionic surfactant (Kinetic®) was included in the solution at a volume of 0.01% (v/v). The vials were then inserted into an automated electrostatic sprayer equipped with an atomizing nozzle for application to plants/insects.
Lima bean plants (variety Sieva) were grown 2 plants to a pot and selected for treatment at the 1st true leaf stage. Test solutions were sprayed onto the foliage by an automated electrostatic plant sprayer equipped with an atomizing spray nozzle. The plants were dried in the sprayer fume hood and then removed from the sprayer. Each pot was placed into perforated plastic bags with a zip closure. About 10 to 11 armyworm larvae were placed into the bag and the bags zipped closed. Test plants were maintained in a growth room at about 250C and about 20-40% relative humidity for 4 days, avoiding direct exposure to fluorescent light (24 hour photoperiod) to prevent trapping of heat inside the bags. Mortality and reduced feeding were assessed 4 days after treatment, compared to untreated control plants.

[2] = tested on: Megoura viciae; test: Vetch aphid (Megoura viciae) control, broad bean leaf disk test; conditions: foliar, 120 h, adult aphids on treated leaf disks, 5 days, read-out: mortality in comparison with untreated controls
Procedure: For evaluating control of vetch aphid (Megoura viciae) through contact or systemic means the test unit consisted of 24-well-microtiter plates containing broad bean leaf disks.
The compounds were formulated using a solution containing 75% v/v water and 25% v/v DMSO. Different concentrations of formulated compounds were sprayed onto the leaf disks at 2.5 μl, using a custom built micro atomizer, at two replications.
After application, the leaf disks were air-dried and 5-8 adult aphids placed on the leaf disks inside the microtiter plate wells. The aphids were then allowed to suck on the treated leaf disks and incubated at about 23±1° C. and about 50±5% relative humidity for 5 days. Aphid mortality and fecundity was then visually assessed.

[3] = tested on: Nezara viridula; test: Green soldier stink bug (Nezara viridula), sprayed soybean pods in Petri dishes; conditions: 120 h, late 3rd instar, after 5 days, read-out: mortality in comparison with untreated controls
Procedure: The active compound is dissolved at the desired concentration in a mixture of 1:1 (vol:vol) distilled water: aceteone. Surfactant (Kinetic® HV) is added at a rate of 0.01% (vol/vol). The test solution is prepared at the day of use.
Soybean pods were placed in 90×50 mm glass Petri dishes lined with moist filter paper and inoculated with ten late 3rd instar N. viridula. Using a hand atomizer, an approximately 2 ml solution is sprayed into each Petri dish. Treated cups were kept at about 25-26° C. and relative humidity of about 65-70%. Percent mortality was recorded after 5 days.

[4] = tested on: Nephotettix virescens; test: Rice green leafhopper (Nephotettix virescens), sprayed rice seedlings; conditions: adults, after 72 hours, read-out: mortality in comparison with untreated controls
Procedure: (§1) Four to five-week old rice seedlings with cut upper leaf portion were cleaned and washed 24 hours before spraying. The active compounds were formulated in 1:1 acetone:water (vol:vol), and 0.01% vol/vol surfactant (Kinetic® HV) was added. Potted rice seedlings were sprayed with 5-6 ml test solution, air dried, covered with Mylar cages and inoculated with 10 adults. Treated rice plants were kept at about 28-29° C. and relative humidity of about 50-60%. Percent mortality was recorded after 72 hours.

[5] = tested on: Aphis craccivora; test: Cowpea aphid (Aphis craccivora), sprayed potted cowpea plants; conditions: after 72 hours, read-out: mortality in comparison with untreated controls
Procedure: (§2) The active compound is dissolved at the desired concentration in a mixture of 1:1 (vol:vol) distilled water: acetone. Surfactant (Kinetic® HV) is added at a rate of 0.01% (vol/vol). The test solution is prepared at the day of use.
Potted cowpea plants were colonized with approximately 30-50 aphids of various stages by manually transferring a leaf tissue cut from infested plant 24 hours before application. Plants were sprayed with the test solutions using a DeVilbiss® hand atomizer at 20-30 psi (=1.38 to 2.07 bar) after the pest population has been checked. Treated plants are maintained on light carts at about 25-26° C. Percent mortality was assessed after 72 hours.

[6] = tested on: Myzuspersicae; test: Green peach aphid (Myzuspersicae) control through systemic means, artificial diet under membrane; conditions: Myzus persicae, 72 h, adult aphids on treated diet, 3 days, read-out: mortality in comparison with untreated controls
Source text: For evaluating control of green peach aphid (Myzuspersicae) through systemic means the test unit consisted of 96-well-microtiter plates containing liquid artificial diet under an artificial membrane.
The compounds were formulated using a solution containing 75% v/v water and 25% v/v DMSO. Different concentrations of formulated compounds were pipetted into the aphid diet, using a custom built pipetter, at two replications.
After application, 5-8 adult aphids were placed on the artificial membrane inside the microtiter plate wells. The aphids were then allowed to suck on the treated aphid diet and incubated at about 23±1° C. and about 50±5% relative humidity for 3 days. Aphid mortality and fecundity was then visually assessed.

[7] = tested on: Anthonomus grandis; test: Boll weevil (Anthonomus grandis) control, microtiter plate insect diet test; conditions: 120 h, egg and larval mortality after 5 days, read-out: mortality in comparison with untreated controls
Procedure: For evaluating control of boll weevil (Anthonomus grandis) the test unit consisted of 96-well-microtiter plates containing an insect diet and 5-10 A. grandis eggs.
The compounds were formulated using a solution containing 75% v/v water and 25% v/v DMSO. Different concentrations of formulated compounds were sprayed onto the insect diet at 5 μl, using a custom built micro atomizer, at two replications.
After application, microtiter plates were incubated at about 25±1° C. and about 75±5% relative humidity for 5 days. Egg and larval mortality was then visually assessed.

[8] = tested on: Nilaparvata lugens; test: Rice brown plant hopper (Nilaparvata lugens), sprayed rice seedlings; conditions: adults, after 72 hours, read-out: mortality in comparison with untreated controls
Procedure: as §1, with “seedlings” for “seedlings with cut upper leaf portion”, “(vol:vol)” for “(vol:vol),”

[9] = tested on: Heliothis virescens; test: Tobacco budworm (Heliothis virescens) control, microtiter plate insect diet test; conditions: 120 h, egg and larval mortality after 5 days, read-out: mortality in comparison with untreated controls
Procedure: For evaluating control of tobacco budworm (Heliothis virescens) the test unit consisted of 96-well-microtiter plates containing an insect diet and 15-25 H. virescens eggs.
The compounds were formulated using a solution containing 75% v/v water and 25% v/v DMSO. Different concentrations of formulated compounds were sprayed onto the insect diet at 10 μl, using a custom built micro atomizer, at two replications.
After application, microtiter plates were incubated at about 28±1° C. and about 80±5% relative humidity for 5 days. Egg and larval mortality was then visually assessed.

[10] = tested on: Chilo suppressalis; test: Striped stem borer (Chilo suppressalis), sprayed petriplates with rice straw; conditions: 300 ppm; first-instar larvae, 72 hours after treatment
Procedure: as §2
Ten first-instar larvae are allowed to crawl on sprayed petriplates for 1 minute and then provided with one freshly cut rice straw per plate. After 10 minutes when all of the larvae are inside the straw will then be covered with Petri lid. Percent mortality is recorded after 72 hours after treatment.

[11] = tested on: Bemisia argentifolii; test: Silverleaf whitefly (Bemisia argentifolii), sprayed cotton plants; conditions: 72 h, adults, 3 days after treatment, read-out: mortality in comparison with untreated controls
Procedure: The active compounds were formulated by a Tecan liquid handler in 100% cyclohexanone as a 10,000 ppm solution supplied in tubes. The 10,000 ppm solution was serially diluted in 100% cyclohexanone to make interim solutions. These served as stock solutions for which final dilutions were made by the Tecan in 50% acetone:50% water (v/v) into 5 or 10 ml glass vials. A nonionic surfactant (Kinetic®) was included in the solution at a volume of 0.01% (v/v). The vials were then inserted into an automated electrostatic sprayer equipped with an atomizing nozzle for application to plants/insects.
Cotton plants at the cotyledon stage (one plant per pot) were sprayed by an automated electrostatic plant sprayer equipped with an atomizing spray nozzle. The plants were dried in the sprayer fume hood and then removed from the sprayer. Each pot was pla-ced into a plastic cup and about 10 to 12 whitefly adults (approximately 3-5 days old) were introduced. The insects were collected using an aspirator and a nontoxic Tygon® tubing connected to a barrier pipette tip. The tip, containing the collected insects, was then gently inserted into the soil containing the treated plant, allowing insects to crawl out of the tip to reach the foliage for feeding. Cups were covered with a reusable screened lid. […] Mortality was assessed 3 days after treatment, compared to untreated control plants.

[12] = tested on: Plutella xylostella; test: Diamond back moth (Plutella xylostella), cabbage leaf dip test; conditions: foliar, 3rd instar larvae, 72 hours after treatment, read-out: mortality in comparison with untreated controls
Procedure: as §2
Leaves of cabbage were dipped in test solution and air-dried. Treated leaves were placed in petri dishes lined with moist filter paper and inoculated with ten 3rd instar larvae. Mortality was recorded 72 hours after treatment. Feeding damages were also recorded using a scale of 0-100%.

CCS(=O)(=O)c1cc(N2CCCC2=O)cnc1-c1cn2c(=O)n(C)c(C(F)(F)F)cc2n1 [I-1-3, 2-[3-ethylsulfonyl-5-(2-oxopyrrolidin-1-yl)-2-pyridyl]-6-methyl-7-(trifluoromethyl)imidazo[1,2-c]pyrimidin-5-one]
mortality at 300 ppm [1]: > 75% | mortality at 2500 ppm [2]: > 75% | mortality at 300 ppm [3]: > 75% | mortality at 300 ppm [4]: > 75% | mortality at 300 ppm [5]: > 75% | mortality at 2500 ppm [6]: > 75% | mortality at 2500 ppm [7]: > 75% | mortality at 300 ppm [8]: > 75% | mortality at 2500 ppm [9]: > 75%

CCS(=O)(=O)c1cc(-c2ncccc2F)cnc1-c1cn2c(=O)n(C)c(C(F)(F)F)cc2n1 [I-1-4]
mortality in comparison with untreated controls [10]: over 75%

CCS(=O)(=O)c1ccc(-n2cnc(C(F)(F)F)n2)nc1-c1cn2c(=O)n(C)c(C(F)(F)F)cc2n1 [I-1-1, 2-[3-ethylsulfonyl-6-[3-(trifluoromethyl)-1,2,4-triazol-1-yl]-2-pyridyl]-6-methyl-7-(trifluoromethyl)imidazo[1,2-c]pyrimidin-5-one]
mortality at 300 ppm [1]: > 75% | mortality at 300 ppm [11]: > 75% | mortality at 300 ppm [12]: > 75% | mortality at 2500 ppm [6]: > 75% | mortality at 2500 ppm [7]: > 75% | mortality at 2500 ppm [9]: > 75%
